Article PMC9272924, “Design and synthesis of thiazolidine-2,4-diones hybrids with 1,2-dihydroquinolones and 2-oxindoles as potential VEGFR-2 inhibitors: in-vitro anticancer evaluation and in-silico studies” (Journal of Enzyme Inhibition and Medicinal Chemistry, 2022)
Several values for one entry are separate records, joined by “and”; a condition that tells them apart may be missing. Identical values can stand only once. Entries after “also recorded” stand apart in the source; their conditions may differ.

What was measured:
[1] = tested on: HepG2; assay: In vitro anti-proliferative activity (MTT assay), HepG2; format: cell-based; conditions: for IC50: Homo sapiens, HepG2, MTT assay, mean of three replicates; for Selectivity index (SI) (HepG2): SI = Cytotoxicity against Vero cells / Cytotoxicity against HepG2 cell line
Experimental: (§1) Target quinolines 8a–c, indolines 12a and 12b were assessed for their potential anti-proliferative effects against a panel of three different cancer cell lines; colon (Caco-2), hepatocellular (HepG2), and breast (MDA-MB-231) cancer cell lines using standard MTT assay protocol. The obtained results confirmed the anti-cancer effects of the tested compounds against the three types of cancerous cell lines, expressed as the median growth inhibitory concentration (IC50), and were presented in Table 1.
(§2) Anti-proliferative activities of the experimented compounds were assessed against Caco-2, HepG-2, and MDA-MB-231 cell lines using MTT assay protocol[54]^,[74] as described in Supplementary data. […]
(§3) a- Mammalian cell lines culture
(§4) WISH, CaCo-2, and A549 cell lines were cultured on DMEM media, meanwhile MDA-MB-231 and hepG-2 cell line were cultured on RBMI media. The cultured media were supplemented with 200 mM L-glutamine, 10.0% fetal bovine serum (Lonza), and 1.0% penicillin/streptomycin. Cells were seeded into 25.0 cm tissue culture flasks and incubated at 37◦C in a 5.0% CO2 incubator for 24 h or till confluency.
(§5) The safety profiles of the tested compounds were checked on one non-cancerous cell line (Vero) to […]
(§6) of 100.0 µl of 6×10^4 cell/ml cells was seeded into each well of a 96-well plate and then the plates were incubated at 37 °C in a humidified 5.0% CO2 incubator for 24 h. At the end of incubation period, the exhausted medium was replaced with 100.0 µl of different concentrations of the designated treatment (prepared in RPMI medium starting from 1.0 mM). The inoculated plates were incubated at the same growth conditions for another 24 h. At the end of incubation, cellular viability was assessed using MTS assay kit (Promega) according to the manual instruction. c- In-vitro anticancer activity
(§7) Anticancer activities of the tested compounds against CaCo-2, MDA-MB-231, and hepG-2 cell lines were quantified using MTS assay kit (Promega) as described by the Manufacturer. d- Selectivity index (SI)
(§8) The selectivity index values of the tested compounds on cancer cells were calculated as described by Koch et al., with slight modifications; SI=IC50nc/IC50cc, where IC50nc: the IC 50 value of the tested compound on normal cells and IC 50cc: IC50 of the te sted compound on cancer cell line . […]

[2] = tested on: MDA-MB-231; assay: In vitro anti-proliferative activity (MTT assay), MDA-MB-231; format: cell-based; conditions: for IC50: Homo sapiens, MDA-MB-231, MTT assay, mean of three replicates; for Selectivity index (SI) (MDA-MB-231): SI = Cytotoxicity against Vero cells / Cytotoxicity against MDA-MB-231 cell line
Experimental: as §1, §2, §3, §4, §5, §6, §7, §8

[3] = Safety assay: in-vitro viability on non-cancerous Vero cell line; format: cell-based; conditions: African green monkey, Vero cells (non-cancerous cell line), MTT assay, read-out: Cytotoxicity against Vero (IC50 µM)
Experimental: An in-vitro viability test was used to investigate the safety patterns of the tested compounds at different concentrations (1.0 mM/mL to 50 µM/mL). The Vero cell line was used as a non-cancerous cell line model to investigate the safety of the synthesised compounds. […] Such values were very high in comparison to the corresponding values on cancer cell lines, which reflect the high in vitro safety profile of the tested members towards non-cancerous cell lines (Table 2). […]
as §3, §4, §5
of 100.0 µl of 6×10^4 cell/ml cells was seeded into each well of a 96-well plate and then the plates were incubated at 37 °C in a humidified 5.0% CO2 incubator for 24 h. At the end of incubation period, the exhausted medium was replaced with 100.0 µl of different concentrations of the designated treatment (prepared in RPMI medium starting from 1.0 mM). The inoculated plates were incubated at the same growth conditions for another 24 h. At the end of incubation, cellular viability was assessed using MTS assay kit (Promega) according to the manual instruction. […]
d- Selectivity index (SI)
as §8

[4] = tested on: Caco-2; assay: In vitro anti-proliferative activity (MTT assay), Caco-2; format: cell-based; conditions: Homo sapiens, Caco-2; MTT assay; mean of three replicates
Experimental: as §1, §2, §3, §4, §5, §6, §7, §8

[5] = as above; format: cell-based; conditions: African green monkey (Vero); human (Caco-2); SI = Cytotoxicity against Vero cells / Cytotoxicity against Caco-2 cell line; read-out: Selectivity index (SI) (Caco-2)
Experimental: as §1, §2, §3, §4, §5, §6, §7, §8

[6] = target: T1, VEGFR-2 (Homo sapiens, UniProt P35968); assay: In vitro VEGFR-2 kinase assay (VEGFR-2 ELISA kit); format: biochemical; conditions: for HillSlope, best-fit value, VEGFR-2 inhibition / LogIC50, best-fit value, VEGFR-2 inhibition: raw data curve fit, % remaining activity
T1 construct: purchased
T1 sequence (P35968 20-1356): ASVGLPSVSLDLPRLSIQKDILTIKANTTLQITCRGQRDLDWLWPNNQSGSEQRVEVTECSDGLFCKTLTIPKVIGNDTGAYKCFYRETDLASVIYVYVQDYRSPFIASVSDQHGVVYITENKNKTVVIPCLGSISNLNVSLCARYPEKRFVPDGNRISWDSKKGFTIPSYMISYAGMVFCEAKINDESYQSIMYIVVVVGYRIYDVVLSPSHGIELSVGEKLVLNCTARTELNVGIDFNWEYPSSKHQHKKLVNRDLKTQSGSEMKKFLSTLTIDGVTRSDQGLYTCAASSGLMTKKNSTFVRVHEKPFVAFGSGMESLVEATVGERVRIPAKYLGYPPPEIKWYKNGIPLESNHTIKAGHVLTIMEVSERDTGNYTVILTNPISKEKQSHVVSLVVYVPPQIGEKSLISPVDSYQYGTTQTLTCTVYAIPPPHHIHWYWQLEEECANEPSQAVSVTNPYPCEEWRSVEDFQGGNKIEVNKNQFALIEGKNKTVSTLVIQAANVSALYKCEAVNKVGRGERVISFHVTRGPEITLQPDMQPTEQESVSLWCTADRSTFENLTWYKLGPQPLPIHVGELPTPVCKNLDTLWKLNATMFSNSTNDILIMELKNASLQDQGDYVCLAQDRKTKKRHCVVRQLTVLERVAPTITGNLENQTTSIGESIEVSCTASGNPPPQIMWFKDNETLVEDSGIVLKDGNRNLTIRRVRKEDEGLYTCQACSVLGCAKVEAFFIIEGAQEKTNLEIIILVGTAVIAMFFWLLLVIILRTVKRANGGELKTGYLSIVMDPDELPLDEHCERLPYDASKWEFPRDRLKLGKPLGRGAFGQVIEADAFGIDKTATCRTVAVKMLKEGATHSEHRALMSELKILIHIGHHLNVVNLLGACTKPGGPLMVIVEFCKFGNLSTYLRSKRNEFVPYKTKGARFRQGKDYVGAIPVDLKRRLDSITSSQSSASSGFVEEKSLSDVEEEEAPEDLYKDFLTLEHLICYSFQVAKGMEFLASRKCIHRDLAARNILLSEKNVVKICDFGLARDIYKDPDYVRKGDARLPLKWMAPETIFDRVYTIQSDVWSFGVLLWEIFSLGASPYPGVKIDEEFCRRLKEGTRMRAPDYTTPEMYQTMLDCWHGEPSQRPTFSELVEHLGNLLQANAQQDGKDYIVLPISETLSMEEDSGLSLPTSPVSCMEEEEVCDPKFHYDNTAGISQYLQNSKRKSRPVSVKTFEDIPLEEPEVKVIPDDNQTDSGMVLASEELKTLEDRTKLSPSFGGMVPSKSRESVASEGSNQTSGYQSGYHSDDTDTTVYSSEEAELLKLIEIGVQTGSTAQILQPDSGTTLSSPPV
From the text: To explore the molecular mechanism of the tested compounds as anticancer agents, the compounds were further evaluated to assess their enzymatic inhibitory potential against VEGFR-2.
VEGFR-2 inhibitory activity of the experimented compounds was preceded using a VEGFR-2 ELISA kit as reported and described in Supplementary data.

[7] = tested on: Bcl-xl; assay: Gene expression by RT-qPCR in Caco-2 cells, Bcl-xl; format: cell-based; conditions: Caco-2 treated with 2 µM (IC50 value) of 12a, compared to control cells
From the text: (§9) These findings indicate the efficiency of compound 12a in the induction of apoptosis (Figure 4).
(§10) The molecular anticancer mode of action of 12a was investigated by screening their ability to control the gene expression levels of Bcl2, Bcl-xl, TGF and Survivin genes as reported[79] in Supplementary data. […]
(§11) f- Gene expression pattern alternation of cancer cell after 12a treatment The molecular anticancer mode of action of 12a was investigated by screening their ability to affect the gene expression levels of Bcl2, Bcl-xl, TGF and Survivin genes using specific forward and reverse primers and RTq-PCR technique (Table 1) in CaCo-2 cells (chosen as the most sensitive cancer cell line). After cellular treatment, CaCo-2 cell line was cultured into 12 well plates (6×10^3 cell/ml) for 24 h. with the sub- […]
(§12) After treatment, total RNA extraction was performed using RNA extraction kit (Qiagen, Germany). Then, 1 ug of the obtained RNA was used to synthesiz cDNA using cDNA synthesis kit (Promega Corp., Madison, WI) as recommended by the manufacturer. Simultaneously, GAPDH forward and reverse primers (Table 1) were used to amplify the house keeping gene as internal control for standardization of PCR products. The RTq-PCR was done using SYBR Green dye (QuantiTect SYBR Green PCR Kits) and Light Cycler fluorimeter (Bio-RAD S1000 Tm thermal cycler). […]

[8] = tested on: Survivin; assay: Gene expression by RT-qPCR in Caco-2 cells, Survivin; format: cell-based; conditions: Caco-2 treated with 2 µM (IC50 value) of 12a, compared to control cells
From the text: as §9, §10, §11, §12

[9] = tested on: Caco-2 cells; assay: Cell migration (in-vitro scratch / wound healing) assay; format: cell-based
From the text: The potential of compound 12a to inhibit the ability of Caco-2 cells to migrate and heal was investigated through the in-vitro scratch assay which is a low-cost easy and well-developed method. The basic concept of this method involves the generation of a scratch in a cancer cell line monolayer, recording the diameter at the beginning, and at regular intervals during cell migration to close that scratch. The obtained results of the treated cell line are then compared to the untreated cell line. Images of scratched areas from the time points; 0, 24 are illustrated in Figure 3.
Regarding the representative control, the scratch was completely closed within 24 h (Figure 3(C)). […] This significant morphological change could be linked to the incidence of apoptosis in the treated cancer cells.
Cell migration assay was fulfilled according to the reported protocol as described[78] in Supplementary data. […]
as §3
WISH, CaCo-2, and A549 cell lines were cultured on DMEM media, meanwhile MDA-MB-231 and hepG-2 cell line were cultured on RBMI media. The cultured media were supplemented with 200 mM L-glutamine, 10.0% fetal bovine serum (Lonza), and 1.0% penicillin/streptomycin. Cells were seeded into 25.0 cm tissue culture flasks and incubated at 37◦C in a 5.0% CO2 incubator for 24 h or till confluency. […]
e- Wound healing assay (Migration assay)
CaCo-2 cells were grown to 95.0% confluency in a complete DMEM medium and then the wounds were formed using a plastic tip. After washing with pre -warmed PBS, the cells were incubated in the specific medium or the 12a treatment. After incubation at 37°C and 5.0% CO 2 for 24h, the cells were washed with PBS and the wounds distance was determined as the scratch width of the treated and untreated groups using […]

[10] = tested on: TGF; assay: Gene expression by RT-qPCR in Caco-2 cells, TGF; format: cell-based; conditions: Caco-2 treated with 2 µM (IC50 value) of 12a, compared to control cells
From the text: as §9, §10, §11, §12

[11] = tested on: Bcl2; assay: Gene expression by RT-qPCR in Caco-2 cells, Bcl2; format: cell-based; conditions: Caco-2 treated with 2 µM (IC50 value) of 12a, compared to control cells
From the text: as §9, §10, §11, §12

SMILES	IC50 [1]	Selectivity index (SI) (HepG2) [1]	IC50 [2]	Selectivity index (SI) (MDA-MB-231) [2]	IC50 at 24 h [3]	IC50 [4]	selectivity ratio [5]	IC50 [6]	HillSlope, best-fit value, VEGFR-2 inhibition [6]	LogIC50, best-fit value, VEGFR-2 inhibition [6]	Bcl-xl gene expression [7]	Survivin gene expression [8]	wound diameter of treated Caco-2 cells ([9]; 12a at sub IC50 value (1 µM), 24 h, 0.348 mm at 0 h, control scratch completely closed within 24 h)	scratch closure and cancer cell migration ([9]; Caco-2, 1 µM, 24 h)	Caco-2 cell shape ([9]; within 24 h)	TGF gene expression [10]	Bcl2 gene expression [11]
Cc1ccc(NC(=O)CN2C(=O)SC(=Cc3cc4ccccc4[nH]c3=O)C2=O)cc1 [Compound 8a, 2–(2,4-Dioxo-5-((2-oxo-1,2-dihydroquinolin-3-yl)methylene)thiazolidin-3-yl)-N-(p-tolyl)acetamide]	86 ± 0.001 µM	18.49	150 ± 0.01 µM	10.60	1590 ± 0.068 µM	9 ± 0.001 µM	177	0.0966 µM	-0.4030	1.985 Log (nM)	–	–	–	–	–	–	–
O=C(CN1C(=O)SC(=Cc2cc3ccccc3[nH]c2=O)C1=O)NCCc1ccccc1 [Compound 8b, 2–(2,4-Dioxo-5-((2-oxo-1,2-dihydroquinolin-3-yl)methylene)thiazolidin-3-yl)-N-phenethylacetamide]	60 ± 0.008 µM	14.83	60 ± 0.003 µM	14.83	890 ± 0.015 µM	150 ± 0.013 µM	5.93	0.0874 µM	-0.3502	1.941 Log (nM)	–	–	–	–	–	–	–
O=C(CN1C(=O)SC(=Cc2cc3ccccc3[nH]c2=O)C1=O)Nc1ccccc1[N+](=O)[O-] [Compound 8c, 2–(2,4-Dioxo-5-((2-oxo-1,2-dihydroquinolin-3-yl)methylene)thiazolidin-3-yl)-N-(2-nitrophenyl)acetamide]	156 ± 0.004 µM	2.50	70 ± 0.009 µM	5.57	390 ± 0.02 µM	90 ± 0.004 µM	4.33	0.318 µM	-0.3460	2.502 Log (nM)	–	–	–	–	–	–	–
Cc1ccc(NC(=O)CN2C(=O)S/C(=C3\C(=O)Nc4ccccc43)C2=O)cc1 [Compound 12a, (Z)-2–(2,4-dioxo-5–(2-oxoindolin-3-ylidene)thiazolidin-3-yl)-N-(p-tolyl)acetamide]	10 ± 0.001 µM	73.00	40 ± 0.002 µM	18 and 18.25	730 ± 0.015 µM	2 ± 0.005 µM	365	–	-0.4584	2.066 Log (nM)	significant down-regulation; also recorded: downregulate	significant down-regulation; also recorded: downregulate	0.335 mm	significantly inhibited the scratch closure and cancer cell migration; also recorded: significantly inhibited the ability of cancer cells to migrate and heal	changed the Caco-2 cell shape from an irregular into the normalised round form; also recorded: changed the cancer cell shape from irregular to a normalised round form	upregulation; also recorded: upregulate	significant down-regulation; also recorded: downregulate
O=C(CN1C(=O)S/C(=C2\C(=O)Nc3ccccc32)C1=O)Nc1ccccc1[N+](=O)[O-] [Compound 12b, (Z)-2–(2,4-dioxo-5–(2-oxoindolin-3-ylidene)thiazolidin-3-yl)-N-(2-nitrophenyl) acetamide]	49 ± 0.008 µM	9.80	37 ± 0.002 µM	12.97	480 ± 40 µM	120 ± 0.001 µM	4	0.0841 µM	-0.2985	1.925 Log (nM)	–	–	–	–	–	–	–
COc1cccc2c1C(=O)c1c(O)c3c(c(O)c1C2=O)C[C@@](O)(C(=O)CO)C[C@@H]3O[C@H]1C[C@H](N)[C@H](O)[C@H](C)O1 [Doxorubicin, reference compound]	1.15 ± 0.02 µM	–	0.98 ± 0.01 µM	–	–	3.46 ± 0.003 µM	–	–	–	–	–	–	–	–	–	–	–
